Read-outs that look alike come from different tables or passages of the source.
Experiments:
[1] = MTD (Maximum Tolerated Dose) determination, single iv administration; type: in vivo; details: mice, iv/SD
Excerpt: (§1) Female CD-1 or Athymic Nude-Fox1 nu/nu mice (Envigo) were utilized for all experiments. […] Animals were acclimated for five days prior to being individually tattoo-identified. Animal protocols were reviewed and approved according to the regional Institutional Animal Care and Use Committees.
(§2) Mice were randomly allocated into experimental groups and intravenously administered, once for the MTD (Maximum Tolerated Dose) determination or one administration a week during three consecutive weeks, for the MTMD (Maximum Tolerated Multiple Dose) determination study. The animals were administered with white formulation or with compound dissolved in the experimental formulation at different concentrations. The volume administered was always 10 mL/kg. Once administered, animals were monitored for clinical signs of systemic toxicity, changes in body weight and mortality up to 14 days after the administration.

[2] = MTMD (Maximum Tolerated Multiple Dose) determination, iv weekly x3; type: in vivo; details: mice; iv/Q7dx3
Excerpt: as §1, §2

HT1080 tumors = assay: In vivo xenograft, human fibrosarcoma HT1080; details: HT1080; Day 28; iv Days 0, 7, 14; 4-R 0.30 mg/kg
Protocol: Female athymic nu/nu mice (Harlan Laboratories Models, S. L. Barcelona, Spain or Envigo, Spain) were utilized for all experiments. Animal were housed in individually ventilated cages Sealsafe® Plus, Techniplast S.P.A.), up to ten per cage on a 12-hour light-dark cycle at 21-23° C. and 40-60% humidity. […] Animals were acclimated for at least 5 days prior to tumor implantation with a tumor cell suspension.
HT1080 cells were maintained in vitro at 37° C. with 5% CO2 in Minimum Essential Medium Eagle (MEME) (Sigma-Aldrich, Co). Each animal was orthotopically implanted into gastroecnemius muscle by an intramuscular injection using a 26 G needle and a 1 cc syringe at 4-6 weeks of age, with 10×10^6 HT1080 cells, suspended in serum free medium, without antibiotics.
(§4) Treatment tolerability was assessed by monitoring body weight evolution, clinical signs of systemic toxicity, as well as evidences of local damage in the injection site.
In xenograft studies with HT1080 cell line: • Total diameter (tumor+leg) measurements were determined by using digital caliper (Fowler Sylvac, S235PAT).
(§5) Treatments producing >20% lethality and/or 20% net body weight loss were considered toxic.

A549 cells = assay: cells; details: for CC50: read-out: LC50
In short: (§3)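 Cells seeded at 5000/well, attached 18 h, then treated 72 h with ten 2/5 serial dilutions (10 to 0.003 μg/mL, 1% final DMSO) in triplicate. Growth measured by SRB staining after glutaraldehyde fixation, with time-zero plate; values from NCI algorithm and four-parameter logistic fit.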

HT29 cells = assay: cells; details: for CC50: read-out: LC50
In short: as §3

H82 tumors = assay: In vivo xenograft, human lung (SCLC) H82; details: iv Days 0, 7, 14, 12-R 0.05 mg/kg, Compound D 0.5 mg/kg
H526 tumors = assay: In vivo xenograft, human lung (SCLC) H526; details: iv Days 0, 7, 14, 12-R 0.05 mg/kg, Compound D 0.5 mg/kg
Protocol: (§6) Female athymic nu/nu mice (Harlan Laboratories Models, S. L. Barcelona, Spain or Envigo, Spain) were utilized for all experiments. Animal were housed in individually ventilated cages Sealsafe® Plus, Techniplast S.P.A.), up to ten per cage on a 12-hour light-dark cycle at 21-23° C. and 40-60% humidity. Mice were allowed free access to irradiated standard rodent diet (Tecklad 2914C) and sterilized water. Animals were acclimated for at least 5 days prior to tumor implantation with a tumor cell suspension.
H526 cells were grown as a suspension and maintained by addition of fresh medium, as the cell density increases, every 2 to 3 days. Every week, culture was reestablished by centrifugation of the suspension with subsequent resuspension in fresh medium at a concentration of 1×10^5 cell/mL. Each animal was subcutaneously implanted (on the right flank using 26 G needle and a 1 cc syringe) at 4-6 weeks of age with 5×10^6 H526 cells suspended in 0.05 mL of a solution consisting of 50% Matrigel® (Corning Incorporated Life Sciences) and 50% medium without serum or antibiotics.
as §4, §5

PC-3 tumors = details: 12-R 0.05 mg/kg
Excerpt: In this model, instead of male, female animals were used because PC-3 growth is not hormone dependant.

PSN1 cells = assay: cells; details: for CC50: read-out: LC50
In short: as §3

MDA-MB-231 cells = assay: cells; details: for CC50: read-out: LC50
In short: as §3

[3] = MDA-MB-231, 72 hours treatment, SRB

Protocol for DU-145 tumors: as §6
Culture cells were passaged every 3 to 5 days upon reaching confluence Each male athymic mice was subcutaneously implanted (on the right flank using a 26 G needle and a 1 cc syringe) at 4-6 weeks of age with 5×10^6 DU-145 cells suspended in 0.05 mL of a solution consisting of 50% Matrigel® Matrix (Corning Incorporated Life Sciences) and 50% medium without serum or antibiotics.
as §4
In xenograft studies with other cell lines: • Tumor volume was calculated using the equation (a·b^2)/2, where a: length (longest diameter) and b: width (shortest diameter) were measured in mm by using digital caliper (Fowler Sylvac, S235PAT).
as §5
Tables and figures summarize the data obtained from complete experimental groups, i.e. those groups keeping the initial number of animals, n=8-10.

SMILES: COc1c(C)cc2c(c1O)[C@@H]1[C@@H]3[C@@H]4SC[C@]5(N[C@@H](CO)Cc6c5[nH]c5ccccc65)C(=O)OC[C@@H](c5c6c(c(C)c(OC(C)=O)c54)OCO6)N3[C@@H](O)[C@H](C2)N1C [Compound 4-R]
- MTD at 14 days ([1]; female, mouse, in vivo): 0.25 mg/kg
- MTMD [2]: 0.30 mg/kg
- Total diameter (tumor + leg) (HT1080 tumors): 18.0 mm
- CC50 (A549 cells; Homo sapiens, A549, 72 h): > 127 nM
- CC50 (HT29 cells; Homo sapiens, HT-29, 72 h): > 127 nM

SMILES: COc1c(C)cc2c(c1O)[C@@H]1[C@@H]3[C@@H]4SC[C@]5(N[C@@H](CN)Cc6c5[nH]c5ccccc65)C(=O)OC[C@@H](c5c6c(c(C)c(OC(C)=O)c54)OCO6)N3[C@@H](O)[C@H](C2)N1C [Compound 12-R]
- Median Tumor Volume (H82 tumors; Table 33, Day 0.0): 170.50 mm^3
- Median Tumor Volume (H82 tumors; Table 33, Day 2.0): 381.40 mm^3
- Median Tumor Volume (H82 tumors; Table 33, Day 5.0): 793.20 mm^3
- Median Tumor Volume (H82 tumors; Table 33, Day 7.0): 1187.20 mm^3
- Median Tumor Volume (H82 tumors; Table 33, Day 9.0): 1699.30 mm^3
- Median Tumor Volume (H82 tumors; Table 33, Day 12.0): 2125.60 mm^3
- Median Tumor Volume (H526 tumors; Table 32, Day 0.0): 214.20 mm^3
- Median Tumor Volume (H526 tumors; Table 32, Day 2.0): 404.50 mm^3
- Median Tumor Volume (H526 tumors; Table 32, Day 4.0): 680.50 mm^3
- Median Tumor Volume (H526 tumors; Table 32, Day 7.0): 995.20 mm^3
- Median Tumor Volume (H526 tumors; Table 32, Day 9.0): 1290.50 mm^3
- Median Tumor Volume (H526 tumors; Table 32, Day 11.0): 1568.00 mm^3
- Median Tumor Volume (H526 tumors; Table 32, Day 14.0): 2025.00 mm^3
- Median Tumor Volume (PC-3 tumors; Day 0, iv Days 0, 7 and 14, 12-S […]): 129.0 mm^3
- Median Tumor Volume (PC-3 tumors; Day 2, iv Days 0, 7 and 14, 12-S […]): 136.2 mm^3
- Median Tumor Volume (PC-3 tumors; Day 4, iv Days 0, 7 and 14, 12-S […]): 144.2 mm^3
- Median Tumor Volume (PC-3 tumors; Day 7, iv Days 0, 7 and 14, 12-S […]): 172.2 mm^3
- Median Tumor Volume (PC-3 tumors; Day 11, iv Days 0, 7 and 14, 12-S […]): 183.6 mm^3
- Median Tumor Volume (PC-3 tumors; Day 14, iv Days 0, 7 and 14, 12-S […]): 205.2 mm^3
- Median Tumor Volume (PC-3 tumors; Day 16, iv Days 0, 7 and 14, 12-S […]): 256.0 mm^3
- Median Tumor Volume (PC-3 tumors; Day 18, iv Days 0, 7 and 14, 12-S […]): 325.7 mm^3
- Median Tumor Volume (PC-3 tumors; Day 21, iv Days 0, 7 and 14, 12-S […]): 322.2 mm^3
- Median Tumor Volume (PC-3 tumors; Day 23, iv Days 0, 7 and 14, 12-S […]): 407.8 mm^3
- Median Tumor Volume (PC-3 tumors; Day 25, iv Days 0, 7 and 14, 12-S […]): 419.9 mm^3
- Median Tumor Volume (PC-3 tumors; Day 29, iv Days 0, 7 and 14, 12-S […]): 459.1 mm^3
- Median Tumor Volume (PC-3 tumors; Day 32, iv Days 0, 7 and 14, 12-S […]): 512.1 mm^3
- Median Tumor Volume (PC-3 tumors; Day 35, iv Days 0, 7 and 14, 12-S […]): 579.2 mm^3
- Median Tumor Volume (PC-3 tumors; Day 37, iv Days 0, 7 and 14, 12-S […]): 613.8 mm^3
- Median Tumor Volume (PC-3 tumors; Day 39, iv Days 0, 7 and 14, 12-S […]): 764.1 mm^3
- Median Tumor Volume (PC-3 tumors; Day 42, iv Days 0, 7 and 14, 12-S […]): 785.0 mm^3
- Median Tumor Volume (PC-3 tumors; Day 44, iv Days 0, 7 and 14, 12-S […]): 845.5 mm^3
- Median Tumor Volume (PC-3 tumors; Day 46, iv Days 0, 7 and 14, 12-S […]): 748.0 mm^3
- Median Tumor Volume (PC-3 tumors; Day 49, iv Days 0, 7 and 14, 12-S […]): 808.7 mm^3
- Median Tumor Volume (PC-3 tumors; Day 51, iv Days 0, 7 and 14, 12-S […]): 855.8 mm^3
- Median Tumor Volume (PC-3 tumors; Day 56, iv Days 0, 7 and 14, 12-S […]): 1125.2 mm^3
- CC50 (PSN1 cells; Homo sapiens, PSN1, 72 h): > 128 nM

SMILES: COc1ccc2[nH]c3c(c2c1)C[C@H](CO)N[C@]31CS[C@@H]2c3c(OC(C)=O)c(C)c4c(c3[C@H](COC1=O)N1[C@@H]2[C@H]2c3c(cc(C)c(OC)c3O)C[C@@H]([C@@H]1O)N2C)OCO4 [Compound 19-R]
- MTD [1]: 0.15 mg/kg
- MTMD [2]: 0.15 mg/kg
- TGI (MDA-MB-231 cells; [3]): 1.35E−09 Molar
- CC50 (MDA-MB-231 cells; [3]): > 123 nM
- TGI (PSN1 cells; PSN1, 72 hours treatment, SRB): 1.35E−09 Molar
- TGI (A549 cells; A549, 72 hours treatment, SRB): 3.56E−09 Molar
- CC50 (A549 cells; A549, 72 hours treatment, SRB): > 123 nM

SMILES: COc1ccc2[nH]c3c(c2c1)C[C@@H](CO)N[C@]31CS[C@@H]2c3c(OC(C)=O)c(C)c4c(c3[C@H](COC1=O)N1[C@@H]2[C@H]2c3c(cc(C)c(OC)c3O)C[C@@H]([C@@H]1O)N2C)OCO4 [Compound 19-S]
- MTD [1]: 0.5 mg/kg
- MTMD [2]: 0.75 mg/kg
- GI50 (MDA-MB-231 cells; [3]): 1.96 nM
- TGI (MDA-MB-231 cells; [3]): 3.31E−09 Molar
- CC50 (MDA-MB-231 cells; [3]): 11 nM
- GI50 (PSN1 cells; PSN1, 72 hours treatment, SRB): 2.95 nM
- TGI (PSN1 cells; PSN1, 72 hours treatment, SRB): 3.19E−09 Molar
- CC50 (PSN1 cells; PSN1, 72 hours treatment, SRB): > 123 nM
- GI50 (A549 cells; A549, 72 hours treatment, SRB): 3.07 nM
- TGI (A549 cells; A549, 72 hours treatment, SRB): 3.31E−09 Molar
- CC50 (A549 cells; A549, 72 hours treatment, SRB): > 123 nM
- GI50 (HT29 cells; HT29, 72 hours treatment, SRB): 1.35 nM
- TGI (HT29 cells; HT29, 72 hours treatment, SRB): 1.60E−09 Molar
- CC50 (HT29 cells; HT29, 72 hours treatment, SRB): > 123 nM

SMILES: COc1ccc2oc3c(c2c1)CCN[C@]31CS[C@@H]2c3c(OC(C)=O)c(C)c4c(c3[C@H](COC1=O)N1[C@@H]2[C@H]2c3c(cc(C)c(OC)c3O)C[C@@H]([C@@H]1O)N2C)OCO4 [Compound 35]
- MTMD [2]: 0.25 mg/kg
- GI50 (MDA-MB-231 cells; Homo sapiens, MDA-MB-231, 72 h): 4.58 nM
- CC50 (MDA-MB-231 cells; Homo sapiens, MDA-MB-231, 72 h): 16.5 nM
- IC (TGI) (MDA-MB-231 cells; Homo sapiens, MDA-MB-231, 72 h, read-out: TGI): 8.27 nM
- GI50 (PSN1 cells; Homo sapiens, PSN1, 72 h): 6.24 nM
- CC50 (PSN1 cells; Homo sapiens, PSN1, 72 h): 14 nM
- IC (TGI) (PSN1 cells; Homo sapiens, PSN1, 72 h, read-out: TGI): 9.03 nM
- GI50 (A549 cells; Homo sapiens, A549, 72 h): 8.14 nM
- CC50 (A549 cells; Homo sapiens, A549, 72 h): > 127 nM
- IC (TGI) (A549 cells; Homo sapiens, A549, 72 h, read-out: TGI): 8.78 nM
- GI50 (HT29 cells; Homo sapiens, HT-29, 72 h): 7.89 nM
- CC50 (HT29 cells; Homo sapiens, HT-29, 72 h): > 127 nM
- IC (TGI) (HT29 cells; Homo sapiens, HT-29, 72 h, read-out: TGI): 8.65 nM

SMILES: COc1c(C)cc2c(c1O)[C@@H]1[C@@H]3[C@@H]4SC[C@]5(N[C@H](CO)Cc6c5oc5ccccc65)C(=O)OC[C@@H](c5c6c(c(C)c(OC(C)=O)c54)OCO6)N3[C@@H](O)[C@H](C2)N1C [Compound 39-S]
- CC50 (HT29 cells; Homo sapiens, HT-29, 72 h): > 127 nM
- Median Tumor Volume (DU-145 tumors; Day 0, 39-S 1.00 mg/Kg iv Days 0, 7 and 14): 179.9 mm^3
- Median Tumor Volume (DU-145 tumors; Day 2, 39-S 1.00 mg/Kg iv Days 0, 7 and 14): 199.9 mm^3
- Median Tumor Volume (DU-145 tumors; Day 4, 39-S 1.00 mg/Kg iv Days 0, 7 and 14): 222.2 mm^3
- Median Tumor Volume (DU-145 tumors; Day 7, 39-S 1.00 mg/Kg iv Days 0, 7 and 14): 340.5 mm^3
- Median Tumor Volume (DU-145 tumors; Day 9, 39-S 1.00 mg/Kg iv Days 0, 7 and 14): 354.1 mm^3
- Median Tumor Volume (DU-145 tumors; Day 11, 39-S 1.00 mg/Kg iv Days 0, 7 and 14): 349.7 mm^3
- Median Tumor Volume (DU-145 tumors; Day 14, 39-S 1.00 mg/Kg iv Days 0, 7 and 14): 429.1 mm^3
- Median Tumor Volume (DU-145 tumors; Day 16, 39-S 1.00 mg/Kg iv Days 0, 7 and 14): 454.8 mm^3
- Median Tumor Volume (DU-145 tumors; Day 18, 39-S 1.00 mg/Kg iv Days 0, 7 and 14): 449.7 mm^3
- Median Tumor Volume (DU-145 tumors; Day 21, 39-S 1.00 mg/Kg iv Days 0, 7 and 14): 517.5 mm^3
- Median Tumor Volume (DU-145 tumors; Day 23, 39-S 1.00 mg/Kg iv Days 0, 7 and 14): 568.5 mm^3
- Median Tumor Volume (DU-145 tumors; Day 25, 39-S 1.00 mg/Kg iv Days 0, 7 and 14): 629.4 mm^3
- Median Tumor Volume (DU-145 tumors; Day 28, 39-S 1.00 mg/Kg iv Days 0, 7 and 14): 775.7 mm^3

Reference: patent US10538535B2, “Antitumoral compounds” (priority 2017, dated 2020)
